Experiments:
[1] = tested on: U87MG Cell line (Glioblastoma cell line); experiment: MTT cell proliferation assay, U87MG Cell line; format: cell-based; details: Homo sapiens, U-87 MG, U87MG, 72 h, MTT
[2] = tested on: MDA-MB-436 Cell line; experiment: MTT cell proliferation assay, MDA-MB-436 Cell line; format: cell-based; details: Homo sapiens, 72 h, MTT; for viability at 0.01 µM: MDA-MB-436, 0.01 μM; for viability at 0.1 µM: MDA-MB-436, 0.1 μM; for viability at 2.5 µM: MDA-MB-436, 2.5 μM; for viability at 5 µM: MDA-MB-436, 5 μM; for viability at 10 µM: MDA-MB-436, 10 μM
Procedure, shortened: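 Cells seeded at 10,000 per well and exposed to serial compound dilutions for 72 h at 37 °C. Viability read by MTT, formazan dissolved in DMSO, absorbance at 600 nm. IC50 by nonlinear regression as concentration giving 50% absorbance reduction versus untreated cells.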

[3] = Log P (Table 3); format: physicochemical; details: no method given
[4] = tested on: MCF-7 Cell line; experiment: MTT cell proliferation assay, MCF-7 Cell line; format: cell-based; details: Homo sapiens, MCF7, 72 h, MTT; for viability at 0.01 µM: MCF-7, 0.01 μM; for viability at 0.1 µM: MCF-7, 0.1 μM; for viability at 2.5 µM: MCF-7, 2.5 μM; for viability at 5 µM: MCF-7, 5 μM; for viability at 10 µM: MCF-7, 10 μM
[5] = tested on: HOP-62 Cell line; experiment: MTT cell proliferation assay, HOP-62 Cell line; format: cell-based; details: Homo sapiens, 72 h, MTT; for viability at 0.01 µM: HOP-62, 0.01 μM; for viability at 0.1 µM: HOP-62, 0.1 μM; for viability at 2.5 µM: HOP-62, 2.5 μM; for viability at 5 µM: HOP-62, 5 μM; for viability at 10 µM: HOP-62, 10 μM
[6] = tested on: A549 Cell line (Lung Cancer Cell line); experiment: MTT cell proliferation assay, A549 Cell line; format: cell-based, human; details: Homo sapiens, 72 h, MTT; for viability at 0.01 µM: A549, 0.01 μM; for viability at 0.1 µM: A549, 0.1 μM; for viability at 2.5 µM: A549, 2.5 μM; for viability at 5 µM: A549, 5 μM; for viability at 10 µM: A549, 10 μM

SMILES | viability at 0.01 µM [1] | viability at 0.1 µM [1] | viability at 2.5 µM [1] | viability at 5 µM [1] | viability at 10 µM [1] | viability at 0.01 µM [2] | viability at 0.1 µM [2] | viability at 2.5 µM [2] | viability at 5 µM [2] | viability at 10 µM [2] | melting point | logP [3] | viability at 0.01 µM [4] | viability at 0.1 µM [4] | viability at 2.5 µM [4] | viability at 5 µM [4] | viability at 10 µM [4] | viability at 0.01 µM [5] | viability at 0.1 µM [5] | viability at 2.5 µM [5] | also measured
COc1ccc(Nc2nc(N)c(-c3nc4ccccc4[nH]3)s2)cc1 [Molecule S4-M2, 5-(1H-benzo[d]imidazol-2-yl)-N^2-(4-methoxyphenyl)thiazole-2,4-diamine] | 93% | 86.5% | 79.5% | 68.5% | 55.5% | 113% | 108% | 95.5% | 93.5% | 90.5% | 224 to 226 °C | 2.11 | 97% | 95.5% | 95.5% | 90.5% | 84.5% | 99% | 93.5% | 85.5% | viability at 5 µM [5]: 77.5%; viability at 10 µM [5]: 75.5%; viability at 0.01 µM [6]: 95%; viability at 0.1 µM [6]: 89.5%; viability at 2.5 µM [6]: 75.5%; viability at 5 µM [6]: 60.5%; viability at 10 µM [6]: 51.5%
Nc1nc(Nc2ccc(Cl)cc2)sc1-c1nc2ccccc2[nH]1 [Molecule S4-M5, 5-(1H-benzo[d]imidazol-2-yl)-N^2-(4-chlorophenyl)thiazole-2,4-diamine] | 92.8% | 80.6% | 72.9% | 60.9% | 49.9% | 99.8% | 99.6% | 99.9% | 99.9% | 98.9% | 210 to 212 °C | 3.99 | 89.8% | 83.6% | 79.9% | 72.9% | 65.9% | 101% | 92.6% | 88.9% | viability at 5 µM [5]: 82.9%; viability at 10 µM [5]: 75.9%; viability at 0.01 µM [6]: 95.8%; viability at 0.1 µM [6]: 85.6%; viability at 2.5 µM [6]: 73.9%; viability at 5 µM [6]: 65.9%; viability at 10 µM [6]: 54.9%
